Assay results from patent US8999669B2, “Detection and visualization of the cell cycle in living cells” (Ludwig-Maximilians Universitat München, priority 2009, dated 2015).

Tested on: HeLa cells
Assay: mitosis assay with HeLa cell-line stably expressing PCNA3p16-GFP (clone 9.6)
Type: cell-based, human
Settings: 0.1 μg/ml, 13 h time series, 30 min intervals
Protocol: HeLa cell-lines stably expressing PCNA3p16-GFP (clone 9.6; amino acid sequence of SEQ ID NO: 2 fused to GFP) were seeded at 50% confluency in live cell imaging chamber (ibidi μ-Slide 8 well). After incubation over night, normal growth medium (DMEM+10% FCS) was replaced with CO2 adapted live-cell medium (DMEM without phenol red+10% FCS+25 mM Hepes Buffer). Subsequently the imaging slide was placed on an INCell Analyzer 1000 (GE Healthcare) high content microscope equipped with an environmental control chamber, adjusted to 37° C. and 5% CO2. Images were acquired with an 20X/0.45 NA air objective using the appropriate filterset for the fluorescent protein GFP (HQ480—40X/HQ535—50M) and an exposure time of 750 ms. For the live cell imaging 15 fields of view per well were selected and a 13 hour time series started with time intervals of 30 min. After the first time point 0.1 μg/ml Colcemid was added directly to the medium of one well; control cells were left untreated (FIG. 11A). Colcemid is a mitotic inhibitor drug such as Colchicine, which depolymerises microtubules and limits microtubule formation (inactivates spindle fibre formation), thus arresting cells in metaphase.
The acquired data set was analyzed with the automated image evaluation and quantification program INCell workstation. […] The amount of mitotic cells per time point was counted and evaluated.

In the case of CN[C@H]1CCc2cc(OC)c(OC)c(OC)c2-c2ccc(OC)c(=O)cc21 [colcemid, Colcemid], the “mitotic cells in treated cell population” value is reported as “increase of mitotic cells”.
